Source: the NIST ThermoML archive (doi:10.1016/j.tca.2018.05.015)
Numbers after ± are expanded uncertainties.

Conditions: for mass density: 101.33 kPa, X-ray diffraction; for Triple point temperature: DSC

With `CC(C)(C#N)N=NC(C)(C)C#N` [2,2'-dimethyl-2,2'-azodipropionitrile] the mass density (346.15 K, Crystal 2) was 1100 ± 22 kg/m3, the mass density (356.15 K, Crystal 1) was 1096 ± 22 kg/m3 and the Triple point temperature (Crystal 1) was 373.15 ± 5 K. The Triple point temperature (Crystal 2) was 351.15 ± 5 K.
